Data as given in US7045532B2 (Millennium Pharmaceuticals, Inc., priority 1999, dated 2006).

The compounds below were run against T1, ACE-2 (Homo sapiens, UniProt Q9BYF1) (assay: ACE-2 Competitive Substrate Assay (ACS Assay)). Settings: Ki class per key; compounds tested in 5% DMSO, 12 compound concentrations, 25° C.; Ki=Kiapp/(1+[S]/Km); read-out: Human ACE-2 Activity.
T1 construct: a stop codon inserted after the serine immediately preceding the transmembrane domain; made in house; host or cells: CHO K1 cells (transient transfection, purified from conditioned medium)
T1 sequence (Q9BYF1 18-740 limits assumed): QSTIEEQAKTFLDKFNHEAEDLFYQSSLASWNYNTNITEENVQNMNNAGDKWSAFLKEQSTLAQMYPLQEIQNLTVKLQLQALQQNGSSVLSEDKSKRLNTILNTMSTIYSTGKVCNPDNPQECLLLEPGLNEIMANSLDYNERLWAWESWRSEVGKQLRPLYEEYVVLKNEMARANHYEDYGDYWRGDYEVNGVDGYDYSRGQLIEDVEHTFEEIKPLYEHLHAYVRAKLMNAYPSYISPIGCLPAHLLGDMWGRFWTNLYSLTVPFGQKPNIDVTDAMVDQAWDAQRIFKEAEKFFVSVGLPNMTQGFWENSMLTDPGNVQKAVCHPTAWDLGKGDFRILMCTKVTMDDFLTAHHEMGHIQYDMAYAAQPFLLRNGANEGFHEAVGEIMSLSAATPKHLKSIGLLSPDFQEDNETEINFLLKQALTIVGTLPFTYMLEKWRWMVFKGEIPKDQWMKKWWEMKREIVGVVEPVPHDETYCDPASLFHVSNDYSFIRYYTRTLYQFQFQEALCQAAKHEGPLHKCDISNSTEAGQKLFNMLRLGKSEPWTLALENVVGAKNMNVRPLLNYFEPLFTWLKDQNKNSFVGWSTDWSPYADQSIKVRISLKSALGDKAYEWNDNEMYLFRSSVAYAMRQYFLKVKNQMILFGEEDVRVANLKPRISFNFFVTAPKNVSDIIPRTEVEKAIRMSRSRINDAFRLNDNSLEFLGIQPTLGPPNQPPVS
Assay type: biochemical

SMILES | Ki
CC(C)C[C@H](N[C@@H](CC#Cc1cc(Cl)cc(Cl)c1)C(=O)O)C(=O)O [PR, 2-(1-Carboxy-3-methyl-butylamino)-5-(3,5-dichloro-phenyl)-pent-4-ynoic acid] | > 0.5 µM
CC(C)C[C@H](N[C@@H](Cc1ccccc1OCc1csc2ccc(Cl)cc12)C(=O)O)C(=O)O [QT, 2-{1-Carboxy-2-[2-(5-chloro-benzo[b]thiophen-3-ylmethoxy)-phenyl]-ethylamino}-4-methyl-pentanoic acid] | > 0.5 µM
COc1ccccc1C(=O)Nc1ccc(C[C@H](N[C@@H](CC(C)C)C(=O)O)C(=O)O)cc1 [RB, 2-[1-Carboxy-2-[4-(2-methoxy-benzoylamino)-phenyl]-ethylamino]-4-methyl-pentanoic acid] | < 0.1 µM
CC(C)C[C@H](N[C@@H](Cc1cccc(Cc2cc(Cl)cc(Cl)c2)c1)C(=O)O)C(=O)O [PG, (S,S)-2-{1-Carboxy-2-[3-(3,5-dichloro-benzyl)-phenyl]-ethylamino}-4-methyl-pentanoic acid] | 0.1 to 0.5 µM
CC(C)C[C@H](N[C@@H](Cc1ccccc1-c1cc(Cl)cc(Cl)c1)C(=O)O)C(=O)O [PT, S,S-2-[1-Carboxy-2-(3′,5′dichloro-biphenyl-2-yl)-ethylamino]-4-methyl-pentanoic acid] | 0.1 to 0.5 µM
CC(C)C[C@H](N[C@@H](Cc1ccc(-c2ccc(C(F)(F)F)cc2)cc1)C(=O)O)C(=O)O [PC, (S,S)-2-[1-Carboxy-2-(4′-trifluoromethyl-biphenyl-4-yl)-ethylamino]-4-methyl-pentanoic acid] | < 0.1 µM
CC(C)C[C@H](N[C@@H](C/C=C\c1cc(Cl)cc(Cl)c1)C(=O)O)C(=O)O (stereo in doubt) [PV, 2-(1-Carboxy-3-methyl-butylamino)-5-(3,5-dichloro-phenyl)-pent-4-enoic acid] | < 0.1 µM
CC(C)C[C@H](N[C@@H](Cc1ccc(-c2ccc(F)cc2)cc1)C(=O)O)C(=O)O [OY, (S,S)-[1-Carboxy-2-(4′-fluoro-biphenyl-4-yl)-ethylamino]-4-methyl-pentanoic acid] | < 0.1 µM
Cc1ccnc(-c2ccc(C[C@H](N[C@@H](CC(C)C)C(=O)O)C(=O)O)cc2)c1 [QA, (S,S)-2-{1-Carboxy-2-[4-(4-methyl-pyridin-2-yl)-phenyl]-ethylamino}-4-methyl-pentanoic acid] | < 0.1 µM
CC(C)C[C@H](N[C@@H](Cc1cccc(Cc2cccc(Cl)c2)c1)C(=O)O)C(=O)O [PF, 2-[1-Carboxy-2-[3-(3-chloro-benzyl)-phenyl]-ethylamino]-4-methyl-pentanoic acid] | 0.1 to 0.5 µM

Same assay, conditions: Ki class; compounds tested in 5% DMSO, 12 compound concentrations, Ki=Kiapp/(1+[S]/Km); read-out: Human ACE-2 Activity

SMILES | Ki
CC(C)C[C@H](N[C@@H](Cc1cc(-c2ccccc2)on1)C(=O)O)C(=O)O [KL, 2-[1-Carboxy-2-(5-phenyl-isoxazol-3-yl)-ethylamino]-4-methyl-pentanoic acid] | 0.1 to 0.5 µM
CC(C)C[C@H](N[C@@H](Cc1csc(-c2cccc(C(F)(F)F)c2)n1)C(=O)O)C(=O)O [KD, (S,S)-2-{1-Carboxy-2-[2-(3-trifluoromethyl-phenyl)-thiazol-4-yl-]-ethylamino}-4-methyl-pentanoic acid] | > 0.5 µM
COC(=O)[C@H](Cc1cncn1Cc1cc(Cl)cc(Cl)c1)N[C@H](CC(C)C)C(=O)O [KY, 2-[2-[3-(3,5-Dichloro-benzyl)-3H-imidazol-4-yl]-1-methoxycarbonyl-ethylamino]-4-methyl-pentanoic acid] | 0.1 to 0.5 µM
CC(C)C[C@H](N[C@@H](CCNC(=O)c1cccc(Cl)c1)C(=O)O)C(=O)O [KP, (S,S)-2-[1-Carboxy-3-(3-chloro-benzoylamino)-propylamino]-4-methyl-pentanoic acid] | > 0.5 µM
Cc1cc(C[C@H](NC(CC(C)C)C(=O)O)C(=O)O)no1 (stereo in doubt) [IM, 2-[1-Carboxy-2-(5-methyl-isoxazol-3-yl)-ethylamino]-4-methyl-pentanoic acid] | > 0.5 µM
CC(C)C[C@H](N[C@@H](Cn1ccn(Cc2ccc(F)cc2)c1=O)C(=O)O)C(=O)O [NQ, 2-{1-Carboxy-2-[3-(4-fluoro-benzyl)-2-oxo-2,3-dihydro-imidazol-1-yl]-ethylamino}-4-methyl-pentanoic acid] | 0.1 to 0.5 µM
CC(C)CC(N[C@@H](Cc1cncn1Cc1ccc(F)cc1)C(=O)O)C(=O)O (single isomer, unassigned) [IJ, 2-[1-Carboxy-2-[3-(4-fluoro-benzyl)-3H-imidazol-4-yl]-ethylamino]4-methyl-pentanoic acid] | > 0.5 µM
CC(C)C[C@H](N[C@@H](CC(=O)Nc1nc(-c2ccccc2)cs1)C(=O)O)C(=O)O [OH, (S,S)-2-[1-Carboxy-2-(4-phenyl-thiazol-2-ylcarbamoyl)-ethylamino]-4-methyl-pentanoic acid] | > 0.5 µM
CC(C)C[C@H](N[C@@H](Cc1ccc(Cc2ccccc2)cc1)C(=O)O)C(=O)O [OG, (S,S)-2-[2-(4-Benzyl-phenyl)-1-carboxy-ethylamino]-4-methyl-pentanoic acid] | < 0.1 µM
Cc1cc2nc(NC(=O)C[C@H](N[C@@H](CC(C)C)C(=O)O)C(=O)O)sc2cc1C [MC, (S,S)-2-[1-Carboxy-2-(5,6-dimethyl-benzothiazol-2-ylcarbamoyl)-ethylamino]-4-methyl-pentanoic acid] | > 0.5 µM
C=CCOc1ccc(C[C@H](N[C@@H](CC(C)C)C(=O)O)C(=O)O)cc1 [LW, 2-[2-(4-Allyloxy-phenyl)-1-carboxy-ethylamino]-4-methyl-pentanoic acid] | < 0.1 µM
COC(=O)[C@H](Cc1cncn1Cc1cc(Cl)cc(Cl)c1)N[C@H](CC(C)C)C(=O)OCc1ccccc1 [LA, 2-[2-[3-(3,5-Dichloro-benzyl)-3H-imidazol-4-yl]-1-methoxycarbonyl-ethylamino]-4-methyl-pentanoic acidbenzyl ester] | > 0.5 µM
CC(C)CC(N[C@@H](Cc1csc(Cc2ccccc2)n1)C(=O)O)C(=O)O (single isomer, unassigned) [JZ, 2-[2-(2-Benzyl-thiazol-4-yl)-1-carboxy-ethylamino]-4-methyl-pentanoic acid] | > 0.5 µM
CC(C)CC(N[C@@H](Cc1cncn1Cc1ccc2c(c1)OCO2)C(=O)O)C(=O)O (single isomer, unassigned) [JF] | > 0.5 µM
Cc1cc(C)cc(-c2ccc(C[C@H](N[C@@H](CC(C)C)C(=O)O)C(=O)O)o2)c1 [NT, (S,S)-2-{1-Carboxy-2-[5-(3,5-dimethyl-phenyl)-furan-2-yl]-ethylamino}-4-methyl-pentanoic acid] | 0.1 to 0.5 µM
CC(C)CC(N[C@@H](Cc1cncn1Cc1cccc(Cl)c1Cl)C(=O)O)C(=O)O (single isomer, unassigned) [IY, 2-[1-Carboxy-2-[3-(2.3-dichloro-benzyl)-3H-imidazol-4-yl]-ethylamino]4-methyl-pentanoic acid] | < 0.1 µM
CC(C)C[C@H](N[C@@H](Cc1csc(-c2cc(Cl)cc(Cl)c2)n1)C(=O)O)C(=O)O [LO, (S,S)-2-{1-Carboxy-2-[2-(3,5-dichlorophenyl)-thiazol-4-yl]-ethylamino}-4-methyl-pentanoic acid] | 0.1 to 0.5 µM
CC(C)C[C@H](N[C@@H](Cc1cccc(OCc2ccc(Cl)cc2)c1)C(=O)O)C(=O)O [OB, 2-[1-Carboxy-2-[3-(4-chloro-benzyloxy)-phenyl)-ethylamino]-4-methyl-pentanoic acid] | 0.1 to 0.5 µM
CC(C)C[C@H](N[C@@H](CN1CCN(Cc2cc(F)cc(F)c2)C1=O)C(=O)O)C(=O)O [LR, 2-[1-Carboxy-2-[3-(3,5-difluoro-benzyl)-2-oxo-imidazolidin-1-yl]-ethylamino]-4-methyl-pentanoic acid] | 0.1 to 0.5 µM
CC(C)CC(NC(Cc1cccc(OCc2ccc(C(F)(F)F)cc2C(F)(F)F)c1)C(=O)O)C(=O)O (centres unmarked) [OC, 2-{2-[3-(2,4-Bis-trifluoromethyl-benzyloxy)-phenyl]-1-carboxy-ethylamino}-4-methyl-pentanoic acid] | > 0.5 µM
CC(C)C[C@H](N[C@@H](Cn1ccn([C@H](C)c2ccccc2)c1=O)C(=O)O)C(=O)O [MF, 2-[1-Carboxy-2-[2-oxo-3-(1-phenyl-ethyl)-2,3-dihydro-imidazol-1-yl]-ethylamino]-4-methyl-pentanoic acid] | > 0.5 µM
CC(C)C[C@H](N[C@@H](CC(=O)Nc1nc2ccc(Br)cc2s1)C(=O)O)C(=O)O [MR, 2-[2-(6-Bromo-benzothiazol-2-ylcarbamoyl]-1-carboxy-ethylamino]-4-methyl-pentanoic acid] | < 0.1 µM
CC(C)CC(N[C@@H](Cc1cncn1Cc1ccc(C#N)cc1)C(=O)O)C(=O)O (single isomer, unassigned) [HB, 2-[1-Carboxy-2-[3-(4-cyano-benzyl)-3H-imidazol-4-yl]-ethylamino)4-methyl-pentanoic acid] | > 0.5 µM
CC(C)C[C@H](N[C@@H](Cn1ccn(Cc2ccccc2)c1=O)C(=O)O)C(=O)O [LS, 2-[2-(3-Benzyl-2-oxo-2,3-dihydro-imidazol-1-yl)-1-carboxy-ethylamino]-4-methyl-pentanoic acid] | 0.1 to 0.5 µM
CCCCOC(=O)[C@H](Cc1cncn1Cc1cc(Cl)cc(Cl)c1)N[C@H](CC(C)C)C(=O)O [LE, 2-[1-Butoxycarbonyl-2-[3-(3,5-dichloro-benzyl)-3H-imidazol-4-yl]-ethylamino]4-methyl-pentanoic acid] | > 0.5 µM
CC(C)C[C@H](N[C@@H](Cn1ccn(Cc2ccc(F)c(F)c2)c1=O)C(=O)O)C(=O)O [OU, 2-[1-Carboxy-2-[3-(3,4-difluoro-benzyl)-2-oxo-2,3-dihydro-imidazol-1-yl]-ethylamino]-4-methyl-pentanoic acid] | 0.1 to 0.5 µM

Same assay, conditions: Ki class; compounds tested in 5% DMSO, 12 concentrations; read-out: Human ACE-2 Activity

SMILES | Ki
CC(C)CC(N[C@@H](Cc1csc(N)n1)C(=O)O)C(=O)O (single isomer, unassigned) [GU, 2-[2-(2-Amino-thiazol-4-yl)1-carboxy-ethylamino]-4-methyl-pentanoic acid] | > 0.5 µM

Same assay, conditions: Table 3, very good ACE-2 inhibiting compounds; species not given; read-out: ACE-2 Activity, Ki

SMILES | Ki
COc1ccccc1C(=O)Nc1ccc(C[C@H](N[C@@H](CC(C)C)C(=O)O)C(=O)O)cc1 [RB, 2-[1-Carboxy-2-[4-(2-methoxy-benzoylamino)-phenyl]-ethylamino]-4-methyl-pentanoic acid] | < 0.05 µM
CC(C)C[C@H](N[C@@H](Cc1ccc(Cc2ccccc2)cc1)C(=O)O)C(=O)O [OG, (S,S)-2-[2-(4-Benzyl-phenyl)-1-carboxy-ethylamino]-4-methyl-pentanoic acid] | 0.05 to 0.1 µM
C=CCOc1ccc(C[C@H](N[C@@H](CC(C)C)C(=O)O)C(=O)O)cc1 [LW, 2-[2-(4-Allyloxy-phenyl)-1-carboxy-ethylamino]-4-methyl-pentanoic acid] | 0.05 to 0.1 µM
CC(C)C[C@H](N[C@@H](Cc1ccc(-c2ccc(C(F)(F)F)cc2)cc1)C(=O)O)C(=O)O [PC, (S,S)-2-[1-Carboxy-2-(4′-trifluoromethyl-biphenyl-4-yl)-ethylamino]-4-methyl-pentanoic acid] | 0.05 to 0.1 µM
CC(C)C[C@H](N[C@@H](CC(=O)Nc1nc2ccc(Br)cc2s1)C(=O)O)C(=O)O [MR, 2-[2-(6-Bromo-benzothiazol-2-ylcarbamoyl]-1-carboxy-ethylamino]-4-methyl-pentanoic acid] | < 0.05 µM
CC(C)C[C@H](N[C@@H](Cc1ccc(-c2ccc(F)cc2)cc1)C(=O)O)C(=O)O [OY, (S,S)-[1-Carboxy-2-(4′-fluoro-biphenyl-4-yl)-ethylamino]-4-methyl-pentanoic acid] | < 0.05 µM
Cc1ccnc(-c2ccc(C[C@H](N[C@@H](CC(C)C)C(=O)O)C(=O)O)cc2)c1 [QA, (S,S)-2-{1-Carboxy-2-[4-(4-methyl-pyridin-2-yl)-phenyl]-ethylamino}-4-methyl-pentanoic acid] | 0.05 to 0.1 µM
